A word on the LD50: it is the dose at which mortality reaches 50%.

Experimental findings from patent US4443460A, “2-[4-(Diphenylmethylene)-1-piperidinyl]-acetic acids and their amides” (UCB, Societe Anonyme, priority 1980, dated 1984) are described below.

The structures appear in SMILES notation.

The subject of data set [1] is mice. The following applies: mouse, in vivo, ip. The procedure: (§1) Progressive doses of the test compounds are administered intraperitoneally to groups of three male mice (body weight 18 to 22 g) and the general behaviour of the animals is observed according to known criteria. The reference compounds used are the following:
Furthermore, in this test, the toxicity of the compounds according to the present invention appears to be very low. This toxicity, determined by intraperitoneal administration in mice (dose which brings about the death of two animals out of three), is given in the following Table: […]

Data set [2] relates to bronchospasms induced by histamine. Briefly: Konzett-Roessler bronchospasm test, histamine-induced (antihistaminic activity). As to conditions: guinea pigs, i.v. It is filed as in vivo. How it is done:
(§2) These activities were measured in guinea pigs by the method of H. Konzett and R. […] Anaesthetized and curarized guinea pigs are subjected to artificial ventilation. The endotracheal pressure is recorded. Repeated bronchial spasms are induced by successive and progressive intravenous injections of respectively acetylcholine, histamine and serotonin. The test compounds are also administered intravenously.

A short description of data set [3]: Oral toxicity LD50 in rats. The following applies: rat, in vivo. How it is done:
(§3) The compounds according to the present invention have a very low toxicity. The toxicity LD50 (in mg/kg) is determined by oral administration to rats and mice. Thus, in the case of compound A, this toxicity is 1903 mg/kg in rats and 959 mg/kg in mice.

Data set [4] has as its system bronchospasms induced by serotonin. In words: Konzett-Roessler bronchospasm test, serotonin-induced. It is filed as in vivo. The following applies: Cavia porcellus, iv, guinea pigs, i.v., read-out: dose which inhibits 50% of the induced bronchospasms, Serotonin. How it is done:
as §2

Data set [5] deals with passive cutaneous anaphylaxis. Briefly: passive cutaneous anaphylaxis test (PCA), antiallergic activity. The following applies: Rattus norvegicus, 0.25 h; rats, oral, allergen i.v. 15 minutes after administration; read-out: ID 50 per os (reduction of 50% of the surface area of the colored spot). It is filed as in vivo. The procedure:
This activity is determined in rats by means of the passive cutaneous anaphylaxis test (PCA) (see J. Goose and A. M. J. N. Blair, Immunology,16,(1969),749-760; and U. Martin and D. Roemer, Arzneimittel-Forschung,28,(5), (1978),770-782).
Female rats are used, the sides of which have been partly shaved. Into the zone thus shaved there is injected intradermally, for passive sensitization of the animals, 0.05 ml of IGE antiovalbumin serum at a dilution such that, at the time of the PCA test, a distinct spot with a surface area of about 100 mm^2 appears at the point of injection.
72 Hours after the injection, 0.25 ml of a solution of allergen containing a coloring agent (5 mg of ovalbumin and 6 mg Evans Blue in 0.25 ml of a 0.9% aqueous solution of sodium chloride) is administered intravenously. At the point of intradermal injection, there appears a distinct blue spot, the surface of which is measured.
In order to test the activity of the compound according to the present invention, the procedure is carried out in the same manner; however:
the test compound is administered orally 72 hours after injection of the serum;
15 minutes after this administration, 0.25 ml of the solution of the allergen is injected intravenously;
30 minutes after the administration of the allergen, the surface of the blue spot is measured.
The following Table gives the immunological doses (ID 50 in μmol/kg) which bring about, on average of the total number of animals submitted to the test, a reduction of 50% of the surface area of the colored spot.

Data set [6] relates to bronchospasms induced by acetylcholine. Briefly: Konzett-Roessler bronchospasm test, acetylcholine-induced. It is filed as in vivo. As to conditions: Cavia porcellus, iv, guinea pigs, i.v., read-out: dose which inhibits 50% of the induced bronchospasms, Acetylcholine. The procedure:
as §2

Data set [7] can be described thus: Oral toxicity LD50 in mice. The following applies: mouse, in vivo. How it is done: as §3
Data set [8] deals with mice. In words: General behaviour of mice (Irwin's test), tranquilization. It is filed as in vivo. As to conditions: male mice, intraperitoneal. How it is done:
The behaviour is studied by means of Irwin's test (see S. Irwin, "General philosophy and methodology of screening: a multidimensional approach"; Gordon Research Conference on Medicinal Chemistry, Aug. 3-7, 1959, at Colby Junior College, New London).
as §1
The following Table gives the doses (in mg/kg) which induce the first manifestations of tranquilization in the animals: […]

Data set [9] concerns respiratory spasm induced by pilocarpine. Briefly: pilocarpine dog test, broncholytic activity. As to conditions: dogs, i.v. It is filed as in vivo. The procedure:
Anaesthetized and curarized dogs are subjected to artificial ventilation. The endotracheal pressure is recorded. A constant respiratory spasm is induced by the continuous intravenous perfusion of pilocarpine. The test substances are also administered intravenously.

With `Cl.O=C(O)COCCOCCN1CCC(=C(c2ccccc2)c2ccccc2)CC1` [compound A, 2-[2-[2-[4-(diphenylmethylene)-1-piperidinyl]ethoxy]ethoxy]-acetic acid hydrochloride], the “Toxicity (dose which brings about the death of two animals out of three)” value in the data set with mice [1] came to 432 mg/kg. In addition, the ED50 in [2] (Cavia porcellus, iv, histamine-induced, read-out: dose which inhibits 50% of the induced bronchospasms, Histamine) stood at 2.65 mg/kg; in data set [4], 2.56 mg/kg; in data set [5], 133 µmol/kg; in [6], 4.13 mg/kg. Also, the “antihistaminic activity 4 hours after injection” value in data set [2] (1 mg/kg, 4 hours) is on record as “retains this activity”. Moreover, the “antihistaminic activity after 90 minutes” value in [2] (1 mg/kg, after 90 minutes) was 100%. For the same compound, the LD50 was 1900 mg/kg in data set [3] and 959 mg/kg in data set [7]. Also, the “"Tranquilizing" dose (first manifestations of tranquilization)” value in the data set with mice [8] is reported as 130 mg/kg. For the same compound, the “reduction of the intensity of the induced spasm” value in data set [9] (320 μg/kg) is 50%. Also, the “broncholytic activity compared with theophylline (in words)” value in [9] (vs theophylline) is “clearly superior to that of theophylline”.
